In brackets after ≈: the same amount, converted by molar mass. Several values for one entry are separate records, joined by “and”; a condition that tells them apart may be missing. Equal values may be shown once.
Columns and labels:
L1210 cells = test: Selectivity of cytotoxic effect, L1210 cells (leukemia); type: cell-based, Mouse; conditions: L1210, 48 h, 37°C
Procedure: (§1) Samples of 10^5 cells of each of tumor cell lines including KB cells (nasopharynx cancer), MX-1 cells (breast cancer, supplied from Dr. Shigeru Tsukagoshi, Cancer Institute), HEp-2 cells (throat cancer) and HEL cells (hepatoma, Flow Co.) and of normal cell lines including intestine 407 cells, Girardi heart cells, Chang Liver cells, Vero cells (monkey kidney) and MDCK cells (dog kidney) (Flow Co.), all of which had been precultured for 24 hours respectively, and 10^5 cells of each of P388 and L1210 cells (leukemia, supplied from Dr. Shigeru Tsukagoshi, Cancer Institute), which were used immediately, were each cultured in 1 ml of Eagle's medium containing 10% calf serum and each test substance at 37° C. for 48 hours in a 5% CO2, 95% air atmosphere. Thereafter the number of the viable cells not stained by Trypan Blue was counted under a light microscope, and the concentration of the test substance at which 50% of the cells are killed was calculated against a control taken as 100. […] One unit of the Lymphotoxins and CBF is expressed by a conventional index which is based on the cytotoxicity on mouse L cells (Eds., Bloom, B. R. & Grade, P. R. "In Vitro Methods in Cell-mediated Immunity", Academic Press,1979).

mouse leukemia P388 = test: Influence on the survival days of leukemic mice, P388; type: in vivo
From the text: (§2) BDF1 -strain male mice weighing 20-25 g were intraperitoneally transplanted with 10^5 cells per animal of mouse leukemia L1210 or 10^6 cells per animal of mouse leukemia […], and the period of survival in days was observed.

Ehrlich ascites tumor = test: Influence on mice transplanted with Ehrlich ascites tumor, survival; type: in vivo, mouse
From the text: (§3) Male mice (ddY-Strain) weighing 25-30 g were intraperitoneally transplanted with 3×10^6 cells per animal of Sarcoma 180 or Ehrlich ascites tumor and the period of survival in days was observed.

Lewis's lung carcinoma = test: Influence on the survival days of lung carcinoma bearing mice; type: in vivo, mouse
From the text: BDF1 -strain male mice weighing 20-25 g were transplanted with 2×10^6 cells of Lewis's lung carcinoma intramuscularly to the right thigh, and the survival days were observed.

mouse leukemia L1210 = test: Influence on the survival days of leukemic mice, L1210; type: in vivo
From the text: as §2

[1] = tested on: Primary Culture Rat Liver; test: Selectivity of cytotoxic effect, primary culture rat liver; type: cell-based; conditions: primary culture rat liver (normal), 48 h, 37°C; read-out: Concentration for 50% Inhibition of Growth
Sarcoma 180 = test: Influence on mice transplanted with Sarcoma 180, survival; type: in vivo, mouse
From the text: as §3

HEL cells = test: Selectivity of cytotoxic effect, HEL cells (hepatoma); type: cell-based, Human; conditions: 48 h, 37°C
Procedure: as §1

human breast cancer MX-1 = test: Influence on breast cancer bearing mice; type: in vivo, BALB/C strain nude mice; conditions: daily dose 0.5 mg/kg, mean ± SE (control 9.7 ± 2.2)
Procedure: BALB/C strain nude mice weighing 20-25 g, 6 animals in each group, had transplanted subcutaneously into their backs 2 mm square segments of human breast cancer MX-1. CBX3 obtained in Example 26 or 29 was intravenously administered into the mice for 14 days from the 14th day after the transplantation. On the 15th day after the first administration,the volume of the primary tumor was measured.

Vero cells = test: Selectivity of cytotoxic effect, normal cells Vero (monkey kidney); type: cell-based; conditions: 48 h, 37°C
Procedure: as §1

mouse melanoma B 16 = test: Influence on the survival period of melanoma bearing mice; type: in vivo
From the text: BDF1 -strain male mice weighing 20-25 g had transplanted subcutaneously in their back 10^6 cells per animal of mouse melanoma B 16, and the survival days were observed.

[2] = tested on: 3-Methylcholanthrene-induced tumor; test: Influence on methylcholanthrene-induced tumor; type: in vivo, ddY-strain mice; conditions: daily dose 0.5 mg/kg, mean ± SE (control 10.5 ± 2.3)
Procedure: 3-Methylcholanthrene dissolved in olive oil was subcutaneously injected to the lateral abdomen of ddY-strain mice, weighing 20-25 g, 8 animals in each group, at 0.5 mg per mouse. CBX3 obtained in Example 26 or 29 was intravenously administered to the mice once a day for 21 days from about 60 days after the 3-Methylcholanthren injection. On the 21st day after the first CBX3 administration, the volume of the tumor was measured.

MX-1 cells = test: Selectivity of cytotoxic effect, MX-1 cells (breast cancer); type: cell-based, Human; conditions: MX-1, 48 h, 37°C
Procedure: as §1

Chang Liver cells = test: Selectivity of cytotoxic effect, normal cells Chang Liver; type: cell-based, Human; conditions: 48 h, 37°C
Procedure: as §1

MDCK cells = test: Selectivity of cytotoxic effect, normal cells MDCK (dog kidney); type: cell-based; conditions: 48 h, 37°C
Procedure: as §1

[3] = tested on: tumor cells and normal cells; test: Cytotoxicity, selectivity tumor cells versus normal cells; type: cell-based
From the text: One unit of CB is defined to be the amount of the substance at which the growth of 10^5 nasopharynx cancer of KB cell is inhibited by 50%.
as §1

P388 cells = test: Selectivity of cytotoxic effect, P388 cells (leukemia); type: cell-based, Mouse; conditions: P388, 48 h, 37°C
Procedure: as §1

HEp-2 cells = test: Selectivity of cytotoxic effect, HEp-2 cells (throat cancer); type: cell-based, Human; conditions: HEp-2, 48 h, 37°C
Procedure: as §1

intestine 407 cells = test: Selectivity of cytotoxic effect, normal cells intestine 407; type: cell-based, Human; conditions: intestine 407 (normal), 37°C
Procedure: as §1

KB cells = test: Selectivity of cytotoxic effect, KB cells (nasopharynx cancer); type: cell-based, Human; conditions: 48 h, 37°C
Procedure: as §1

[4] = tested on: tumor cells and normal cells; conditions: as reported in the literature; cited from earlier work
[5] = tested on: acute myelogenous leukemia cells M-1; test: Effect on inducing differentiation of tumor cells; type: cell-based; conditions: 20.0 ng/ml, 48 h (control 1)
Procedure: According to the method of Hozumi, M. et al (Cancer Research, Vol, 40, 2919-2924 (1980)), 5×10^5 cells of acute myelogenous leukemia cells M-1 (supplied from Dr. Motoo Hozumi, Saitama Cancer Center) were suspended in 1 ml of Eagle's medium containing 10% calf serum and also containing amino acids and vitamins in amounts twice the ordinary levels, to which each test substance had been added, and cultured at 37° C. for 48 hours in a 5% CO2, 95% air atmosphere. Thereafter, the cells were resuspended in a medium containing 0.2% polystyrene latex particles (Dow Chemical Co.) and incubated at 37° C. for 4 hours. Then the total number of cells which phagocytotized the particles and the total number of cells were counted under a light microscope, and the differentiation rate was calculated from the ratio of these cells.

Lewis's lung cancer = test: Influence on the lung metastasis of cancer; type: in vivo, mouse; conditions: mean ± SE
Procedure: Groups of BDF1 -strain male mice weighing 20-30 g, 6 animals in each group, had transplanted subcutaneously into their backs 2 mm square segments of Lewis's lung cancer. […] On the 21st day after transplantation, the mass of primary tumor was isolated and weighed, and the number of the metastasized nodes in the animal's lungs was calculated according to the method of Wexler, H. (J. Natl. Cancer Institute, Vol. 36 641 (1966)).

[6] = Mus musculus, read-out: Concentration for 50% Inhibition of Growth
[7] = daily dose 0.5 mg/kg, 0.5 mg/kg
[8] = Homo sapiens, read-out: Concentration for 50% Inhibition of Growth

CO[C@@]12[C@H](COC(N)=O)C3=C(C(=O)C(C)=C(N)C3=O)N1C[C@@H]1N[C@@H]12 [Mitomycin C]
Concentration for 50% Inhibition of Growth (L1210 cells): 44 µg/mL
IC50 (L1210 cells; [6]): 43 µg/mL (≈ 129 µM)
Average Survival Days (% of control group) (mouse leukemia P388; P388, daily dose 0.5 mg/kg, 0.5 mg/kg): 133% and 130%
Average Survival Days (% of control group) (mouse leukemia P388; P388, dose 5.0 mg/kg (Table 4-3)): 141%
Average Survival Days (% of control group) (Ehrlich ascites tumor; [7]): 168% and 164% and 166%
Average Survival Days (% of control group) (Lewis's lung carcinoma; [7]): 121% and 120%
Average Survival Days (% of control group) (mouse leukemia L1210; L1210, daily dose 0.5 mg/kg, 0.5 mg/kg): 128% and 136%
Average Survival Days (% of control group) (mouse leukemia L1210; L1210, dose 5.0 mg/kg (Table 4-3)): 132%
IC50 [1]: 61 µg/mL (≈ 182 µM)
Average Survival Days (% of control group) (Sarcoma 180; Sarcoma 180, daily dose 0.5 mg/kg, 0.5 mg/kg): 140% and 138% and 142%
Concentration for 50% Inhibition of Growth (HEL cells): 25 µg/mL
IC50 (HEL cells; [8]): 26 µg/mL (≈ 77.8 µM)
Tumor Volume (human breast cancer MX-1): 4.4 ± 1.1 cm^3
Concentration for 50% Inhibition of Growth (Vero cells): 50 µg/mL
IC50 (Vero cells; Primates, Vero, read-out: Concentration for 50% Inhibition of Growth): 52 µg/mL (≈ 156 µM)
Average Survival Days (% of control group) (mouse melanoma B 16; melanoma B 16, daily dose 0.5 mg/kg, 0.5 mg/kg): 140%
Tumor Volume [2]: 6.6 ± 1.3 cm^3
IC50 (MX-1 cells; Homo sapiens, MX1, 48 h, read-out: Concentration for 50% Inhibition of Growth): 32 µg/mL (≈ 95.7 µM)
Concentration for 50% Inhibition of Growth (MX-1 cells): 30 µg/mL
Concentration for 50% Inhibition of Growth (Chang Liver cells): 21 µg/mL
IC50 (Chang Liver cells; Homo sapiens, Chang liver, read-out: Concentration for 50% Inhibition of Growth): 19 µg/mL (≈ 56.8 µM)
Concentration for 50% Inhibition of Growth (MDCK cells): 44 µg/mL
IC50 (MDCK cells; Canis lupus familiaris, MDCK, read-out: Concentration for 50% Inhibition of Growth): 41 µg/mL (≈ 123 µM)
Cytotoxicity, selectivity for tumor cells over normal cells (in words) [3]: nonselective cytotoxicity to the normal cells and the tumor cells
IC50 (P388 cells; [6]): 36 µg/mL (≈ 108 µM)
Concentration for 50% Inhibition of Growth (P388 cells): 37 µg/mL
Concentration for 50% Inhibition of Growth (HEp-2 cells): 18 µg/mL
IC50 (HEp-2 cells; [8]): 17 µg/mL (≈ 50.8 µM)
IC50 (intestine 407 cells; Homo sapiens, Intestine 407, 48 h, read-out: Concentration for 50% Inhibition of Growth): 32 µg/mL (≈ 95.7 µM)
Concentration for 50% Inhibition of Growth (intestine 407 cells; 48 h): 35 µg/mL
Concentration for 50% Inhibition of Growth (KB cells): 35 µg/mL
IC50 (KB cells; [8]): 34 µg/mL (≈ 102 µM)

Tumor Necrosis Factor
Cytotoxic effect, selectivity for tumor cells over normal cells (in words) [4]: selective cytotoxic effect on tumor cells

C[C@@H]1C[C@H]2[C@@H]3CCC4=CC(=O)C=C[C@]4(C)[C@@]3(F)[C@@H](O)C[C@]2(C)[C@@]1(O)C(=O)CO [Dexamethasone]
Differentiation Rate [5]: 25%

O=P1(N(CCCl)CCCl)NCCCO1 (centres unmarked) [Cyclophosphamide]
Average Survival Days (% of control group) (mouse leukemia P388; P388, daily dose 20 mg/kg, 20 mg/kg): 147% and 145%
Average Survival Days (% of control group) (Ehrlich ascites tumor; daily dose 20 mg/kg, 20 mg/kg): 212% and 206%
Average Survival Days (% of control group) (Lewis's lung carcinoma; daily dose 20 mg/kg, 20 mg/kg): 163% and 164%
Average Survival Days (% of control group) (mouse leukemia L1210; L1210, daily dose 20 mg/kg, 20 mg/kg): 172% and 149%
Average Survival Days (% of control group) (Sarcoma 180; Sarcoma 180, daily dose 20 mg/kg, 20 mg/kg): 172% and 170%
Average Survival Days (% of control group) (mouse melanoma B 16; melanoma B 16, daily dose 20 mg/kg): 158%
Tumor Weight (Lewis's lung cancer; Table 7-1 Experiment 1 (control 9.6 ± 1.9), daily dose printed 20 unit/kg): 3.4 ± 0.7 g
No. of Metastasized Nodes in Lung (Lewis's lung cancer; Table 7-1 Experiment 1 (control 29.2 ± 7.3), daily dose printed 20 unit/kg): 0.4 ± 0.2
Tumor Weight (Lewis's lung cancer; Table 7-2 (control 7.8 ± 0.5), daily dose printed 20 unit/kg): 3.5 ± 0.6 g
No. of Metastasized Nodes in Lung (Lewis's lung cancer; Table 7-2, daily dose printed 20 unit/kg): 0.6 ± 0.3
